Reference: publication PMC8338929, “Acetylation turns leucine into a drug by membrane transporter switching” (Scientific Reports, 2021)

Biological target: T1, Human OAT3 (SLC22A8) (Homo sapiens, UniProt Q8TCC7)
T1 construct: host or cells: HEK-293
T1 sequence (Q8TCC7 1-542): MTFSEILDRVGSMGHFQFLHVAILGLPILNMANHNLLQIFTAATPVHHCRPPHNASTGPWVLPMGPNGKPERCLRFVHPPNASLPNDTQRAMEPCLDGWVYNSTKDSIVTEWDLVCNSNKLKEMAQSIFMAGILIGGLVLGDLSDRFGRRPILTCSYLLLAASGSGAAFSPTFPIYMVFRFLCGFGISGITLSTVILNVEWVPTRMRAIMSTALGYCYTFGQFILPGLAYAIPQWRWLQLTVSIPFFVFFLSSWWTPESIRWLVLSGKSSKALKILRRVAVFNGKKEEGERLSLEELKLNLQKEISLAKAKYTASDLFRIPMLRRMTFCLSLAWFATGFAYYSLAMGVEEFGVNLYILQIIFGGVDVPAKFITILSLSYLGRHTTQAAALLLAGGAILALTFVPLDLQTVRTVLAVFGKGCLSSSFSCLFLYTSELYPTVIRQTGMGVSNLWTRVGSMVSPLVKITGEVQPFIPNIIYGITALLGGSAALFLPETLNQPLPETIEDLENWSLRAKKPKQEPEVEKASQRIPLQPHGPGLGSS
Test: OAT3-mediated cellular uptake in overexpressing HEK-293 cells
Type: cell-based
Experimental: Cells were grown in DMEM (Gibco 4196, high glucose, without sodium pyruvate) supplemented with MEM non-essential amino acids and 10% fetal bovine serum. Cells were re-fed with fresh medium after attachment (4–6 h post-seeding). Cell were plated at a density of 4 × 10^5/well in 24-well plates coated with poly-D-lysine. Transporter assays were conducted in 400 µL of HBSS supplemented with 10 mM Hepes, pH 7.4
The known probe substrates used as positive controls were 3 μM chlorothiazide for OAT1, 2 μM estrone-3-sulfate for OAT3, 10 µM [^3H]gabapentin for LAT1, 50 µM [^3H]Gly-Sar for PepT1, 500 µM thiophene-2-glyoxylic acid for MCT1. The known inhibitors used as controls for each transporter were 100 μM diclofenac for OAT1 and OAT3, 10 µM JPH203 for LAT1 and 200 µM losartan for PepT1. All incubations were in triplicate and contained 1% (OAT1 and OAT3) or 0.5% DMSO (LAT, PepT1 and MCT1). The duration of uptake was 5 min for OAT1 and OAT3, 3 min for LAT1 and PepT1 and 1 min for MCT1. Assays were performed at 37 °C with no shaking, except MCT1 at room temperature. To determine uptake due to the overexpressed transporter per se, uptake was taken as the difference between accumulation between transfected and nontransfected cells in parallel experiments at the same concentration and time. To terminate uptake the plate was placed on ice and cells washed twice with ice-cold transport buffer. […]

## CC(=O)N[C@@H](CC(C)C)C(=O)O [N-acetyl-L-leucine]
Michaelis-Menten fit
  Vmax OAT3 uptake: 138
pH 7.4, 5 min
  substrate of OAT3 (uptake): substrate
